# According to patent US10960088B2, “Macrocycles, cobalt and iron complexes of same, and methods of making and using same” (The Research Foundation for The State University of New York, priority 2013, dated 2021):
# What was measured:
# [1] = Exchange rate constants (omega plot); conditions: 10 mM complex; for kex: 20 mM HEPES pH 7.4, 100 mM NaCl, B1 8-24 μT, presat 4 s, 37° C., 11.7 T
# Description: Exchange rate constants were calculated following a previously reported procedure. Measurements of on-resonance (Mz) and off-resonance (Mo) were acquired at different presaturation pulse powers between 350-1000 Hz (8-24 μT) applied for 4 seconds at 37° C. The exchange rate constant (kex) is calculated from the x-intercept from the plot of Mz/(Mo−Mz) against 1/ω1^2 (ω1 in rad/s). The rate constant, kex, is converted into units of s^−1. Samples contained 10 mM Co^II complex, 20 mM HEPES pH 7.4, and 100 mM NaCl.
# The exchange rate constants were calculated by using a previously reported procedure. The magnetization of the on-resonance (Mz) and off-resonance (Mo) were acquired at different pre-saturation pulse powers between 350-1090 Hz applied for 4 seconds. To calculate the exchange rate constant (kb), the x-intercept (−1/kb^2) was obtained from the plot of Mz/(Mo−Mz) against 1/ω1^2 (ω1 in rad/s). Samples contained 16 mM [Co(TPT)]Cl2, 200 mM NaCl, and 40 mM MES or HEPES at pH 6.4-7.5. Measurements were carried out at 37° C.
# [2] = Effective magnetic moment in solution from magnetic susceptibility (NMR); type: physicochemical; conditions: for μeff: 5 mM Co^II complex in D2O; for magnetic moment: 25° C. in D2O
# Description: The effective magnetic moment (μeff) was calculated by using a previously known method. 5 mM Co^II complex and 5% t-butanol by volume was placed in a NMR insert while the outer NMR tube contained 5% by volume t-butanol in D2O. The μeff was calculated at 298 K (T) and monitored over a period of 72 hours using the following approach.
# The mass susceptibility of solute (χg) was calculated by obtaining the observed frequency shift of the reference (Δf) in Hz, the spectrometer frequency (f) in Hz, the mass of the substance per cm^3 of solution (m), and the mass susceptibility of solvent D2O (χ0=−0.6466×10^−6 cm^3/g). The last term is neglected due to the minimal contribution to mass susceptibility of solute. The molar susceptibility (χm) is the product of χg multiplied by the molecular weight of the Co^II complex.
# The effective magnetic moment was calculated by using a previously known method. In a typical experiment, oxygen-free solution of 8-20 mM [Co(TPT)]^2+ in deuterium oxide, pD 7.0, containing 5% tert-butanol by volume was placed in an NMR tube, while a reference solution of 5% tert-butanol (v/v) in deuterium oxide, pD 7.0, was placed into NMR tube insert. All solutions of [Co(TPT)]^2+ were purged with argon and kept in the absence of air. The effective magnetic moment (μeff) was calculated at 298 K (T) using the following equations 7-8. In these equations the mass susceptibility of solute (χg) was calculated by obtaining the observed frequency shift of the reference (Δf) in Hz, the spectrometer frequency (f) in Hz, the mass of the substance per cm^3 of the solution (m), and the mass susceptibility of deuterium oxide (χ0=−0.6466×10^−6 cm^3/g). The last term in eq. SI is neglected due to the minimal contribution to mass susceptibility of solute. The molar susceptibility (χm) is the product of χg multiplied by the molecular weight of the [Co(TPT)]Cl2 complex. Reported value of the effective magnetic moment was obtained by averaging of three independent experiments. χg=(−3Δf)/(4πfm)+χ0+[χ0(d0−ds)]/m eq. 7 μeff=2.84(χmT)^1/2 eq. 8
# [3] = Displacement of Co^II by Cu^II monitored by UV-vis; type: physicochemical; conditions: 10-fold excess of Cu^II
# Description: Samples contained 200 μM Co^II complex, 10 mM MES buffer pH 5.5 and 1, 4, or 10 equivalents of CuCl2. The formation of the Cu^II complexes was monitored at 264 nm, 286 nm, 312 nm and 310 nm for [Cu(TCMT)]^2+, [Cu(NOPE)]^2+, [Cu(TCMC)]^2+, and [Cu(CCRM)]^2+, respectively. A previously reported procedure was followed.
μeff [2] [µB],magnetic moment [2] [μB],dissociation with competing Cu^II (in words) [3],dissociation with competing Cu^II ([3]; over 4 hours) [%],Compound,"kex, peak at 95 ppm ([1]; peak at 95 ppm, pH 7.4, 37° C.) [s⁻¹]","kex, peak at 112 ppm ([1]; peak at 112 ppm, pH 7.4, 37° C.) [s⁻¹]",kex [1] [s⁻¹]
4.6,4.6,dissociating completely within one hour,–,NC(=O)CN1CCCN(CC(N)=O)CCN(CC(N)=O)CCCN(CC(N)=O)CC1.[Co+2] [[Co(CCRM)]^2+],910,510,–
4.1,4.1,dissociating completely within one hour,–,NC(=O)CN1CCOCCOCCN(CC(N)=O)CCOCC1.[Co+2] [[Co(NOPE)]^2+],–,–,240
4.5,4.5,inert to dissociation,–,NC(=O)CN1CCN(CC(N)=O)CCN(CC(N)=O)CCN(CC(N)=O)CC1.[Co+2] [[Co(TCMC)]^2+],–,–,300
5.2,5.2,–,~15,NC(=O)CN1CCN(CC(N)=O)CCN(CC(N)=O)CC1.[Co+2] [[Co(TCMT)]^2+],–,–,890
